Drawing on publication PMC7014401, this text covers ring closure, conversion by HPLC (% conversion (LC/MS deconvolution)) for seven compounds.

Data set [1] in a line: On-DNA RCM (terminal diene to cyclic alkene), catalyst B (Grubbs-III 2,2'-biphenyldiamine derivative, 10 eq), MgCl2 20000 eq, NH4Cl 12000 eq. The following applies: H2O:EtOH:MeOAc 5:4:1, 0.02 mM, 25.0 °C, 0.5 h.
Data set [2] can be described thus: On-DNA RCM, Grubbs III catalyst A (150 eq), MgCl2 8000 eq (Lu et al. conditions, heterogeneous, rerun here). The settings on record: H2O:tBuOH 3:2, 0.09 mM, 25.0 °C, 1.0 h.
A short description of data set [3]: On-DNA RCM, Grubbs III catalyst A (10 eq), MgCl2 20000 eq, NH4Cl 12000 eq (Alternative #1). The settings on record: H2O:EtOH:MeOAc 5:4:1, 0.02 mM, 25.0 °C, 0.5 h.
A short description of data set [4]: On-DNA RCM, Grubbs III catalyst A (10 eq) + 2,2'-biphenyldiamine C (20 eq), MgCl2 20000 eq, NH4Cl 12000 eq (Alternative #2). The following applies: H2O:EtOH:MeOAc 5:4:1, 0.02 mM, 25.0 °C, 0.5 h.
Where [5] appears, read: from C=CCCC[C@](C)(NC(=O)[C@H](CCCNC(=N)N)NC(=O)[C@H](Cc1c[nH]cn1)NC(=O)[C@H](CC(C)C)NC(=O)[C@](C)(CCCC=C)NC(=O)[C@H](CCCCN)NC(=O)[C@H](CCCNC(=N)N)NC(=O)[C@H](CCCNC(=N)N)NC(=O)[C@H](CCCNC(=N)N)NC(=O)[C@H](CCCNC(=N)N)NC(C)=O)C(=O)N[C@@H](CC(C)C)C(=O)N[C@@H](CCC(N)=O)C(=O)N[C@@H](CC(=O)O)C(=O)N[C@@H](CCc1cn(CC(=O)NC)nn1)C(N)=O, 21-membered ring.
Where [6] appears, read: from C=CCCCC(=O)NCCCC[C@@H](NC(=O)COCCOCCNC(=O)CCCC=C)C(=O)NC, 26-membered ring.
Where [7] appears, read: from C=CCCCC(=O)N(CC=C)CC(=O)NC, 8-membered ring.
[8] abbreviates: from C=CCCCC(=O)NCCCC[C@H](NC(=O)CCCC=C)C(=O)NC, 17-membered ring.

The structures appear in SMILES notation.

Compound `CNC(=O)CCOCCOCCOCCOCCn1cc(CC[C@H](NC(=O)[C@H](CC(=O)O)NC(=O)[C@H](CCC(N)=O)NC(=O)[C@H](CC(C)C)NC(=O)[C@]2(C)CCCC=CCCC[C@](C)(NC(=O)[C@H](CCCCN)NC(=O)[C@H](CCCNC(=N)N)NC(=O)[C@H](CCCNC(=N)N)NC(=O)[C@H](CCCNC(=N)N)NC(=O)[C@H](CCCNC(=N)N)NC(C)=O)C(=O)N[C@@H](CC(C)C)C(=O)N[C@@H](Cc3c[nH]cn3)C(=O)N[C@@H](CCCNC(=N)N)C(=O)N2)C(N)=O)nn1` registered a ring closure, conversion by HPLC (% conversion (LC/MS deconvolution)) in data set [1] (from C=CCCC[C@](C)(NC(=O)[C@H](CCCNC(=N)N)NC(=O)[C@H](Cc1c[nH]cn1)NC(=O)[C@H](CC(C)C)NC(=O)[C@](C)(CCCC=C)NC(=O)[C@H](CCCCN)NC(=O)[C@H](CCCNC(=N)N)NC(=O)[C@H](CCCNC(=N)N)NC(=O)[C@H](CCCNC(=N)N)NC(=O)[C@H](CCCNC(=N)N)NC(C)=O)C(=O)N[C@@H](CC(C)C)C(=O)N[C@@H](CCC(N)=O)C(=O)N[C@@H](CC(=O)O)C(=O)N[C@@H](CCc1cn(CCOCCOCCOCCOCCC(=O)NC)nn1)C(N)=O, 21-membered ring) of 65.

As for `CNC(=O)Cn1cc(CC[C@H](NC(=O)[C@H](CC(=O)O)NC(=O)[C@H](CCC(N)=O)NC(=O)[C@H](CC(C)C)NC(=O)[C@]2(C)CCCC=CCCC[C@](C)(NC(=O)[C@H](CCCCN)NC(=O)[C@H](CCCNC(=N)N)NC(=O)[C@H](CCCNC(=N)N)NC(=O)[C@H](CCCNC(=N)N)NC(=O)[C@H](CCCNC(=N)N)NC(C)=O)C(=O)N[C@@H](CC(C)C)C(=O)N[C@@H](Cc3c[nH]cn3)C(=O)N[C@@H](CCCNC(=N)N)C(=O)N2)C(N)=O)nn1`, the ring closure, conversion by HPLC (% conversion (LC/MS deconvolution)) came out at 52 in data set [1] (setting [5]) and 22 in data set [2] (setting [5]).

In data set [2] (from C=CCCCC(=O)NCCCC[C@H](NC(=O)C[C@H](NC(=O)CC=C)c1cccnc1)C(=O)NC, 19-membered ring), `CNC(=O)[C@@H]1CCCCNC(=O)CCCC=CCC(=O)N[C@H](c2cccnc2)CC(=O)N1` displayed a ring closure, conversion by HPLC (% conversion (LC/MS deconvolution)) of 0.

As for `CNC(=O)[C@H]1CCCCNC(=O)CCCC=CCCCC(=O)NCCOCCOCC(=O)N1`, the ring closure, conversion by HPLC (% conversion (LC/MS deconvolution)) was 70 in data set [1] (setting [6]), 23 in data set [2] (setting [6]), 58 in data set [3] (setting [6]) and 61 in data set [4] (setting [6]).

Turning to `CNC(=O)CN1CC=CCCCC1=O` [5-hexenoyl-(N-allyl)Gly-NH-DNA], the ring closure, conversion by HPLC (% conversion (LC/MS deconvolution)) in data set [1] (setting [7]) came to 62; in data set [2] (setting [7]), 65; in data set [3] (setting [7]), 33; in data set [4] (setting [7]), 73.

`CNC(=O)[C@@H]1CCCCNC(=O)CCCC=CCCCC(=O)N1` [5-hexenoyl-Lys(5-hexenoyl)-NH-DNA (56-bp dsDNA)] showed a ring closure, conversion by HPLC (% conversion (LC/MS deconvolution)) in data set [1] (setting [8]) of 69.

For the compound `CNC(=O)[C@@H]1CCCCNC(=O)CCCC=CCCCC(=O)N1` [5-hexenoyl-Lys(5-hexenoyl)-NH-DNA], the ring closure, conversion by HPLC (% conversion (LC/MS deconvolution)) in data set [1] (setting [8]) was found to be 78; in data set [2] (setting [8]), 70; in data set [3] (setting [8]) it was 72; in data set [4] (setting [8]) it was 75.
